Assay: xn = mol fraction of the nth substance listed

ClCCl + Cc1ccccc1C
101 kPa
Conditions	viscosity [mPa·s]
293.15 K, x1 = 0.3503	0.679
293.15 K, x1 = 0.4307	0.648
293.15 K, x1 = 0.4992	0.623
293.15 K, x1 = 0.5657	0.594
293.15 K, x1 = 0.6558	0.561
293.15 K, x1 = 0.7632	0.521
293.15 K, x1 = 0.8524	0.49
298.15 K, x1 = 0.2305	0.677
298.15 K, x1 = 0.3611	0.634
298.15 K, x1 = 0.449	0.602
298.15 K, x1 = 0.5343	0.572
298.15 K, x1 = 0.6293	0.542
298.15 K, x1 = 0.696	0.519
298.15 K, x1 = 0.7684	0.494
298.15 K, x1 = 0.826	0.476
298.15 K, x1 = 0.8658	0.465
303.15 K, x1 = 0.236	0.644
303.15 K, x1 = 0.3688	0.602
303.15 K, x1 = 0.4846	0.561
303.15 K, x1 = 0.5645	0.531
303.15 K, x1 = 0.6373	0.507
303.15 K, x1 = 0.7091	0.483
303.15 K, x1 = 0.7766	0.462
303.15 K, x1 = 0.8368	0.444
303.15 K, x1 = 0.861	0.437

CCNc1ccccc1 + CC(=O)c1ccccc1
303.15 K, 100 kPa
Conditions	viscosity [mPa·s]
x1 = 0.0651	1.524
x1 = 0.1424	1.538
x1 = 0.2225	1.554
x1 = 0.2977	1.568
x1 = 0.3611	1.581
x1 = 0.4487	1.599
x1 = 0.5162	1.614
x1 = 0.5869	1.631
x1 = 0.6407	1.644
x1 = 0.7083	1.662
x1 = 0.7798	1.681
x1 = 0.8256	1.694
x1 = 0.9025	1.715

ClCCl + COCCO
298.15 K, 101 kPa
Conditions	viscosity [mPa·s]
x2 = 0.1103	0.5177
x2 = 0.2181	0.5832
x2 = 0.3235	0.6707
x2 = 0.4266	0.7669
x2 = 0.5274	0.8908
x2 = 0.626	1.029
x2 = 0.7225	1.168
x2 = 0.817	1.295
x2 = 0.9095	1.428

CCNc1ccccc1 + Clc1ccccc1
viscosity [mPa·s], 101 kPa
Conditions	303.15 K	308.15 K
x1 = 0.0629	0.767	0.72
x1 = 0.1159	0.816	0.758
x1 = 0.1959	0.894	0.823
x1 = 0.2558	0.954	0.873
x1 = 0.3298	1.028	0.937
x1 = 0.3968	1.096	0.995
x1 = 0.4856	1.188	1.073
x1 = 0.5625	1.267	1.141
x1 = 0.6359	1.342	1.206
x1 = 0.7025	1.412	1.266
x1 = 0.7839	1.499	1.34
x1 = 0.8592	1.581	1.411
x1 = 0.9215	1.65	1.473

CCC(=O)N(CC)CC + O
298.16 K, 101 kPa
Conditions	viscosity [mPa·s]
x2 = 0.0649	1.31
x2 = 0.1684	1.49
x2 = 0.2965	1.79
x2 = 0.4448	2.27
x2 = 0.5923	2.93
x2 = 0.7652	3.86
x2 = 0.8001	3.91
x2 = 0.8352	3.83
x2 = 0.8933	3.34
x2 = 0.9093	3.03

CCNc1ccccc1 + CCCCCCO
viscosity [mPa·s], 101 kPa
Conditions	303.15 K	308.15 K	313.15 K
x1 = 0.0815	3.513	3.35	3.189
x1 = 0.1812	3.243	3.069	2.9
x1 = 0.2501	3.07	2.889	2.719
x1 = 0.3121	2.922	2.736	2.565
x1 = 0.3956	2.737	2.546	2.374
x1 = 0.4652	2.594	2.399	2.227
x1 = 0.5285	2.47	2.273	2.101
x1 = 0.6124	2.318	2.119	1.947
x1 = 0.6758	2.21	2.01	1.84
x1 = 0.7415	2.105	1.904	1.735
x1 = 0.8012	2.014	1.813	1.647
x1 = 0.8652	1.922	1.722	1.557
x1 = 0.9114	1.857	1.659	1.496

CC[NH+](C)CC.CS(=O)(=O)[O-] + O
Conditions	viscosity [mPa·s]
318.15 K, 100 kPa, x1 = 0.4263	15.65

CC(=O)O + CC#N
viscosity [mPa·s], 101 kPa
Conditions	x1 = 0.0924	x1 = 0.1864	x1 = 0.282	x1 = 0.3793	x1 = 0.4782	x1 = 0.5789	x1 = 0.6814	x1 = 0.7857	x1 = 0.8919
298.15 K	0.3742	0.4162	0.4785	0.558	0.6509	0.7533	0.8608	0.9682	1.07
308.15 K	0.3267	0.3622	0.4177	0.4891	0.5719	0.6612	0.7513	0.8362	0.9088
318.15 K	0.2808	0.3168	0.3759	0.4515	0.5363	0.6224	0.7005	0.7609	0.7925

ClCCl + COCCOCCOCCOCCOC
298.15 K, 101 kPa
Conditions	viscosity [mPa·s]
x2 = 0.017	0.459
x2 = 0.0332	0.51
x2 = 0.0557	0.586
x2 = 0.0844	0.681
x2 = 0.1417	0.909
x2 = 0.1831	1.075
x2 = 0.236	1.294
x2 = 0.2842	1.492
x2 = 0.292	1.519
x2 = 0.3401	1.699
x2 = 0.38	1.848
x2 = 0.4698	2.155
x2 = 0.5134	2.334
x2 = 0.6018	2.651
x2 = 0.6882	2.749
x2 = 0.7367	2.865
x2 = 0.8029	2.981
x2 = 0.8758	3.111
x2 = 0.9066	3.17
x2 = 0.9339	3.239

CCNc1ccccc1 + CC(C)(C)O
viscosity [mPa·s], 101 kPa
Conditions	303.15 K	308.15 K
x1 = 0.0789	3.287	2.6
x1 = 0.1325	3.222	2.566
x1 = 0.1974	3.139	2.522
x1 = 0.2562	3.061	2.478
x1 = 0.3315	2.957	2.414
x1 = 0.4056	2.848	2.343
x1 = 0.4868	2.717	2.256
x1 = 0.5626	2.59	2.167
x1 = 0.6195	2.488	2.096
x1 = 0.6889	2.359	2.003
x1 = 0.7514	2.241	1.916
x1 = 0.8214	2.102	1.815
x1 = 0.8914	1.96	1.71

CC(=O)O + C1CCOC1
298.15 K, 101 kPa
Conditions	viscosity [mPa·s]
x2 = 0.0847	1.112
x2 = 0.1723	1.087
x2 = 0.263	1.04
x2 = 0.357	0.9739
x2 = 0.4544	0.8952
x2 = 0.5554	0.8054
x2 = 0.6602	0.7083
x2 = 0.7691	0.6103
x2 = 0.8823	0.5294

ClCCCl + CC#N
101.33 kPa
Conditions	viscosity [mPa·s]
298 K, x2 = 0.0717	0.754
298 K, x2 = 0.1909	0.698
298 K, x2 = 0.2938	0.65
298 K, x2 = 0.3884	0.607
298 K, x2 = 0.4948	0.558
298 K, x2 = 0.5896	0.515
298 K, x2 = 0.6957	0.468
298 K, x2 = 0.7981	0.425
298 K, x2 = 0.8955	0.385
303.15 K, x2 = 0.113	0.674
303.15 K, x2 = 0.1744	0.6458
303.15 K, x2 = 0.2643	0.6069
303.15 K, x2 = 0.3563	0.5679
303.15 K, x2 = 0.4072	0.5471
303.15 K, x2 = 0.543	0.4921
303.15 K, x2 = 0.6825	0.4372
303.15 K, x2 = 0.8073	0.3903
303.15 K, x2 = 0.8792	0.3647
303.15 K, x2 = 0.9181	0.3513

From the CheMixHub viscosity set
